Laboratory results taken from ChEMBL document CHEMBL4308841, “Synthesis, in vitro antiproliferative activity, and kinase inhibitory effects of pyrazole-containing diarylureas and diarylamides” (Eur J Med Chem, 2018).

How the values were obtained:
Assay type in all cases: functional
CCRF-CEM = test: Growth inhibition of human CCRF-CEM cells assessed as cell growth at 10 uM incubated for 48 hrs by sulforhodamine B assay relative to control; conditions: read-out: Activity
HL-60(TB) = test: Growth inhibition of human HL-60(TB) cells assessed as cell growth at 10 uM incubated for 48 hrs by sulforhodamine B assay relative to control; conditions: HL-60, 48 h, read-out: Activity
K562 = test: Growth inhibition of human K562 cells assessed as cell growth at 10 uM incubated for 48 hrs by sulforhodamine B assay relative to control; conditions: K562, 48 h, read-out: Activity
MOLT-4 = test: Growth inhibition of human MOLT4 cells assessed as cell growth at 10 uM incubated for 48 hrs by sulforhodamine B assay relative to control; conditions: MOLT-4, 48 h, read-out: Activity
RPMI-8226 = test: Growth inhibition of human RPMI8226 cells assessed as cell growth at 10 uM incubated for 48 hrs by sulforhodamine B assay relative to control; conditions: RPMI-8226, 48 h, read-out: Activity
SR = test: Growth inhibition of human SR cells assessed as cell growth at 10 uM incubated for 48 hrs by sulforhodamine B assay relative to control; conditions: read-out: Activity
A549 = test: Growth inhibition of human A549/ATCC cells assessed as cell growth at 10 uM incubated for 48 hrs by sulforhodamine B assay relative to control; conditions: A549, 48 h, read-out: Activity
HOP-62 = test: Growth inhibition of human HOP62 cells assessed as cell growth at 10 uM incubated for 48 hrs by sulforhodamine B assay relative to control; conditions: HOP-62, 48 h, read-out: Activity
NCI-H226 = test: Growth inhibition of human NCI-H226 cells assessed as cell growth at 10 uM incubated for 48 hrs by sulforhodamine B assay relative to control; conditions: NCI-H226, 48 h, read-out: Activity
NCI-H322M = test: Growth inhibition of human NCI-H322M cells assessed as cell growth at 10 uM incubated for 48 hrs by sulforhodamine B assay relative to control; conditions: read-out: Activity
HCT-116 = test: Growth inhibition of human HCT116 cells assessed as cell growth at 10 uM incubated for 48 hrs by sulforhodamine B assay relative to control; conditions: HCT-116, 48 h, read-out: Activity
KM12 = test: Growth inhibition of human KM12 cells assessed as cell growth at 10 uM incubated for 48 hrs by sulforhodamine B assay relative to control; conditions: KM12, 48 h, read-out: Activity
SF-295 = test: Growth inhibition of human SF295 cells assessed as cell growth at 10 uM incubated for 48 hrs by sulforhodamine B assay relative to control; conditions: SF-295, 48 h, read-out: Activity
SF-539 = test: Growth inhibition of human SF539 cells assessed as cell growth at 10 uM incubated for 48 hrs by sulforhodamine B assay relative to control; conditions: SF-539, 48 h, read-out: Activity
SNB-19 = test: Growth inhibition of human SNB19 cells assessed as cell growth at 10 uM incubated for 48 hrs by sulforhodamine B assay relative to control; conditions: SNB-19, 48 h, read-out: Activity
SNB-75 = test: Growth inhibition of human SNB75 cells assessed as cell growth at 10 uM incubated for 48 hrs by sulforhodamine B assay relative to control; conditions: SNB-75, 48 h, read-out: Activity
U-251 = test: Growth inhibition of human U251 cells assessed as cell growth at 10 uM incubated for 48 hrs by sulforhodamine B assay relative to control; conditions: U-251, 48 h, read-out: Activity
SK-MEL-28 = test: Growth inhibition of human SK-MEL-28 cells assessed as cell growth at 10 uM incubated for 48 hrs by sulforhodamine B assay relative to control; conditions: SK-MEL-28, 48 h, read-out: Activity
UACC-257 = test: Growth inhibition of human UACC257 cells assessed as cell growth at 10 uM incubated for 48 hrs by sulforhodamine B assay relative to control; conditions: UACC-257, 48 h, read-out: Activity
UACC-62 = test: Growth inhibition of human UACC62 cells assessed as cell growth at 10 uM incubated for 48 hrs by sulforhodamine B assay relative to control; conditions: UACC-62, 48 h, read-out: Activity
IGROV-1 = test: Growth inhibition of human IGROV1 cells assessed as cell growth at 10 uM incubated for 48 hrs by sulforhodamine B assay relative to control; conditions: IGROV-1, 48 h, read-out: Activity
OVCAR-3 = test: Growth inhibition of human OVCAR3 cells assessed as cell growth at 10 uM incubated for 48 hrs by sulforhodamine B assay relative to control; conditions: OVCAR-3, 48 h, read-out: Activity
OVCAR-5 = test: Growth inhibition of human OVCAR5 cells assessed as cell growth at 10 uM incubated for 48 hrs by sulforhodamine B assay relative to control; conditions: OVCAR-5, 48 h, read-out: Activity
NCI/ADR-RES = test: Growth inhibition of human NCI/ADR-RES cells assessed as cell growth at 10 uM incubated for 48 hrs by sulforhodamine B assay relative to control; conditions: read-out: Activity
SK-OV-3 = test: Growth inhibition of human SKOV3 cells assessed as cell growth at 10 uM incubated for 48 hrs by sulforhodamine B assay relative to control; conditions: SK-OV-3, 48 h, read-out: Activity
A498 = test: Growth inhibition of human A498 cells assessed as cell growth at 10 uM incubated for 48 hrs by sulforhodamine B assay relative to control; conditions: A498, 48 h, read-out: Activity
ACHN = test: Growth inhibition of human ACHN cells assessed as cell growth at 10 uM incubated for 48 hrs by sulforhodamine B assay relative to control; conditions: read-out: Activity
PC-3 = test: Growth inhibition of human PC3 cells assessed as cell growth at 10 uM incubated for 48 hrs by sulforhodamine B assay relative to control; conditions: PC-3, 48 h, read-out: Activity
DU-145 = test: Growth inhibition of human DU145 cells assessed as cell growth at 10 uM incubated for 48 hrs by sulforhodamine B assay relative to control; conditions: DU-145, 48 h, read-out: Activity
MDA-MB-231 = test: Growth inhibition of human MDA-MB-231 cells assessed as cell growth at 10 uM incubated for 48 hrs by sulforhodamine B assay relative to control; conditions: MDA-MB-231, 48 h, read-out: Activity
BT-549 = test: Growth inhibition of human BT549 cells assessed as cell growth at 10 uM incubated for 48 hrs by sulforhodamine B assay relative to control; conditions: BT-549, 48 h, read-out: Activity
T47D = test: Growth inhibition of human T47D cells assessed as cell growth at 10 uM incubated for 48 hrs by sulforhodamine B assay relative to control; conditions: read-out: Activity
MDA-MB-468 = test: Growth inhibition of human MDA-MB-468 cells assessed as cell growth at 10 uM incubated for 48 hrs by sulforhodamine B assay relative to control; conditions: MDA-MB-468, 48 h, read-out: Activity

| Structure (SMILES) | growth at 10 µM (CCRF-CEM) [%] | growth at 10 µM (HL-60(TB)) [%] | growth at 10 µM (K562) [%] | growth at 10 µM (MOLT-4) [%] | growth at 10 µM (RPMI-8226) [%] | growth at 10 µM (SR) [%] | growth at 10 µM (A549) [%] | growth at 10 µM (HOP-62) [%] | growth at 10 µM (NCI-H226) [%] | growth at 10 µM (NCI-H322M) [%] | growth at 10 µM (HCT-116) [%] | growth at 10 µM (KM12) [%] | growth at 10 µM (SF-295) [%] | growth at 10 µM (SF-539) [%] | growth at 10 µM (SNB-19) [%] | growth at 10 µM (SNB-75) [%] | growth at 10 µM (U-251) [%] | growth at 10 µM (SK-MEL-28) [%] | growth at 10 µM (UACC-257) [%] | growth at 10 µM (UACC-62) [%] | further results |
| --- | --- | --- | --- | --- | --- | --- | --- | --- | --- | --- | --- | --- | --- | --- | --- | --- | --- | --- | --- | --- | --- |
| O=C(Nc1cccc(-n2cc(-c3ccncc3)c(-c3cc(O)cc(Cl)c3)n2)c1)Nc1ccc(Cl)c(Cl)c1 | 4.11 | -23.4 | 1.06 | -27.1 | -15.3 | -21.4 | 3.96 | -44.2 | 14.5 | 19.5 | -57.3 | 2.26 | -50.5 | -29 | 30.8 | 4.08 | -56.5 | -50.9 | -70.7 | -61.8 | growth at 10 µM (IGROV-1): 26%; growth at 10 µM (OVCAR-3): -47.4%; growth at 10 µM (OVCAR-5): -2.26%; growth at 10 µM (NCI/ADR-RES): 12.8%; growth at 10 µM (SK-OV-3): 13.2%; growth at 10 µM (A498): -2.98%; growth at 10 µM (ACHN): 6.85%; growth at 10 µM (PC-3): -1.66%; growth at 10 µM (DU-145): -15.1%; growth at 10 µM (MDA-MB-231): -38.1%; growth at 10 µM (BT-549): 0.54%; growth at 10 µM (T47D): -5.53%; growth at 10 µM (MDA-MB-468): -1.88% |
| O=C(Nc1cccc(-n2cc(-c3ccncc3)c(-c3cc(O)cc(Cl)c3)n2)c1)c1ccc(N2CCOCC2)c(C(F)(F)F)c1 | 13.1 | -46.4 | -15.5 | -29.7 | -3.77 | -12.4 | 9.62 | -2.19 | 94.7 | 43.5 | 12.7 | 9.89 | -35.4 | 2.4 | 12.1 | 23.1 | -9.64 | -52.4 | 9.38 | 10.8 | growth at 10 µM (IGROV-1): 44.3%; growth at 10 µM (OVCAR-3): 36.4%; growth at 10 µM (OVCAR-5): 81.4%; growth at 10 µM (NCI/ADR-RES): 35%; growth at 10 µM (SK-OV-3): 50.7%; growth at 10 µM (A498): 72.7%; growth at 10 µM (ACHN): 20.7%; growth at 10 µM (PC-3): 19.1%; growth at 10 µM (DU-145): 38%; growth at 10 µM (MDA-MB-231): -48%; growth at 10 µM (BT-549): 52.2%; growth at 10 µM (T47D): 29.3%; growth at 10 µM (MDA-MB-468): 26% |
